Experimental data from ChEMBL document CHEMBL3217690, “Superiority of a novel EGFR targeted covalent inhibitor over its reversible counterpart in overcoming drug resistance” (Medchemcomm, 2012).
Activity calls are given as the source filed them. The rule behind the calls is not given here.

Legend:
[1] = Inhibition of EGF-induced EGFR E746 to E750 deletion mutant-mediated Akt phosphorylation in human HCC827 cells after 1 hr by immunoblotting method; type: cell-based; settings: HCC827, 1 h
[2] = biological target: T1, Epidermal growth factor receptor (Homo sapiens, UniProt P00533, L858R/T790M); experiment: Inhibition of EGF-induced EGFR L858R/T790M mutant autophosphorylation in human […] cells after 1 hr by immunoblotting method; type: cell-based
T1 sequence (P00533 25-1210 T790M/L858R limits assumed): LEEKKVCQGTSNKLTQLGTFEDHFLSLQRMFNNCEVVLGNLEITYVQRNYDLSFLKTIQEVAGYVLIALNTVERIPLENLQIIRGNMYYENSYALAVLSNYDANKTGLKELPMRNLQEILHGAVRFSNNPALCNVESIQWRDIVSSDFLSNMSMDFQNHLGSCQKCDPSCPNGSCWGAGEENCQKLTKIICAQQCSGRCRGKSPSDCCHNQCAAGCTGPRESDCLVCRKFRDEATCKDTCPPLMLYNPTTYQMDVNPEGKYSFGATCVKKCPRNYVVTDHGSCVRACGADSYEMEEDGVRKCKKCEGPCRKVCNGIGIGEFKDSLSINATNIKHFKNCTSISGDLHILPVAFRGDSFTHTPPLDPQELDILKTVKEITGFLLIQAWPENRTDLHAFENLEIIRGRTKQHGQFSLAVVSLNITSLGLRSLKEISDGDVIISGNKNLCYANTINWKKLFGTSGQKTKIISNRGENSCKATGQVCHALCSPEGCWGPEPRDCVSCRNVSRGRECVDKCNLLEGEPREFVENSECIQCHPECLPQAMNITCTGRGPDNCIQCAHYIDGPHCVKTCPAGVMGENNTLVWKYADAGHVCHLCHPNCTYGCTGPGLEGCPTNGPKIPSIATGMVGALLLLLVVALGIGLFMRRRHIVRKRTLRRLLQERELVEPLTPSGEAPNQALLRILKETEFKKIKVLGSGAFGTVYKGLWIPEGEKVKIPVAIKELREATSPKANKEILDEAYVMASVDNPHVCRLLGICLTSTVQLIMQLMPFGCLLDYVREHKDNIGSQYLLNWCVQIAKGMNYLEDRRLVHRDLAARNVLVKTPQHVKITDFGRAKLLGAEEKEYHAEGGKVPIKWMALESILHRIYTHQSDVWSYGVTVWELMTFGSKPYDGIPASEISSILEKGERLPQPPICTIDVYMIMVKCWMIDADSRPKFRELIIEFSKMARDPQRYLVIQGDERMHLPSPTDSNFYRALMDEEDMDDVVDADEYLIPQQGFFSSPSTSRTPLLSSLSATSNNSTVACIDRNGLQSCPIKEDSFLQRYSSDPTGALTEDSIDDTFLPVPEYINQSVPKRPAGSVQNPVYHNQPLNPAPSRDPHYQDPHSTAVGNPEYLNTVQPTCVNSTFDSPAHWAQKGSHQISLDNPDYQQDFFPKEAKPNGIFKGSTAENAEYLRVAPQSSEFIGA

[3] = biological target: T2, Epidermal growth factor receptor (Homo sapiens, UniProt P00533); experiment: Reversible inhibition of EGF-induced EGFR autophosphorylation in human A431 cells assessed as residual activity compound preincubated at 1 uM for 1 hr measured after 1 hr post compound washout by immunoblotting method; type: cell-based; settings: A-431
T2 sequence (P00533 whole entry): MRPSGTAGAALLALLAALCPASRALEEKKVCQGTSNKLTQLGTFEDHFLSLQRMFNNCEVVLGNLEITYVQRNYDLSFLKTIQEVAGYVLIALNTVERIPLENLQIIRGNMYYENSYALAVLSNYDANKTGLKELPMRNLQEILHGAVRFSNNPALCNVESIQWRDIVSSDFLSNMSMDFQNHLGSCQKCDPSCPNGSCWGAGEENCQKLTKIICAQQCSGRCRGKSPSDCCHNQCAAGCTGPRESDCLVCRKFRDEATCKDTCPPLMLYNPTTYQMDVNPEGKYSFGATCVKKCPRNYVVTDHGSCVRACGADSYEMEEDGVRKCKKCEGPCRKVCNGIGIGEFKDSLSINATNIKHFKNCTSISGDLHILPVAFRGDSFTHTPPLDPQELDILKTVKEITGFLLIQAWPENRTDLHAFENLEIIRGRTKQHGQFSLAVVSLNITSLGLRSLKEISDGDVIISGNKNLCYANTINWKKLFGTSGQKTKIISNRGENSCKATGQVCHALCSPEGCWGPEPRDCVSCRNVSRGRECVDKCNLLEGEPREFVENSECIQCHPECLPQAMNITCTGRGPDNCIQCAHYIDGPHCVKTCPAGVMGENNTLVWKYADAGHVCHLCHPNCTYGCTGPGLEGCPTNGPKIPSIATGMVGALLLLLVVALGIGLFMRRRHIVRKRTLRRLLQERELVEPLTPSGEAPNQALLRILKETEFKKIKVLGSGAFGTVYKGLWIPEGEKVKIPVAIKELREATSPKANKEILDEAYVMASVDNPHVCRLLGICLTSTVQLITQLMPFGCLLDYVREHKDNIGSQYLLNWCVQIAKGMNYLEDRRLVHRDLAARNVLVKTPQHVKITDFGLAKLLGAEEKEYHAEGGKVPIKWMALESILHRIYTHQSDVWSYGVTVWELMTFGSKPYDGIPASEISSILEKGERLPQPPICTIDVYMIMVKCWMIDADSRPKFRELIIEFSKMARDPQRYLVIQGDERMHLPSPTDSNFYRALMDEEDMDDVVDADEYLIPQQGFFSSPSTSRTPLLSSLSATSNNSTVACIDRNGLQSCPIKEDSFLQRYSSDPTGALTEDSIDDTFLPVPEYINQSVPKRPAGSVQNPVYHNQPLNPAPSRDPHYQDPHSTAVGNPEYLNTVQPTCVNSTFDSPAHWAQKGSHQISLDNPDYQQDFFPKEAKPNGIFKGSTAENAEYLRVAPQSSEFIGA

[4] = biological target: T2, Epidermal growth factor receptor; experiment: Inhibition of EGF-induced EGFR-mediated ERK phosphorylation in human A431 cells after 1 hr by immunoblotting method; type: cell-based, A-431
[5] = biological target: T1, Epidermal growth factor receptor; experiment: Inhibition of EGF-induced EGFR L858R/T790M mutant-mediated Akt phosphorylation in human […] cells after 1 hr by immunoblotting method; type: cell-based
[6] = biological target: T2, Epidermal growth factor receptor; experiment: Covalent binding affinity to wild type EGFR (unknown origin) after 1 hr by mass spectrometry
[7] = Inhibition of EGF-induced EGFR E746 to E750 deletion mutant-mediated pS6 phosphorylation in human HCC827 cells after 1 hr by immunoblotting method; type: cell-based; settings: HCC827, 1 h
[8] = biological target: T2, Epidermal growth factor receptor; experiment: Inhibition of wild type EGFR (unknown origin) using Y12-Sox peptide as substrate preincubated for 30 mins by fluorescence assay
A-431 = experiment: Growth inhibition of human A431 cells harboring wild type EGFR assessed as reduction in cell viability after 72 hrs by CellTiter Glo assay; type: functional; settings: A-431, 72 h
NCI-H1975 = experiment: Growth inhibition of human NCI-H1975 cells harboring EGFR L858R/T790M mutant assessed as reduction in cell viability after 72 hrs by CellTiter Glo assay; type: functional; settings: NCI-H1975, 72 h
[9] = biological target: T2, Epidermal growth factor receptor; experiment: Inhibition of EGF-induced EGFR-mediated Akt phosphorylation in human A431 cells after 1 hr by immunoblotting method; type: cell-based, A-431
[10] = biological target: T1, Epidermal growth factor receptor; experiment: Inhibition of EGF-induced EGFR L858R/T790M mutant-mediated pS6 phosphorylation in human […] cells after 1 hr by immunoblotting method; type: cell-based
[11] = biological target: T2, Epidermal growth factor receptor; experiment: Inhibition of EGF-induced EGFR-mediated pS6 phosphorylation in human A431 cells after 1 hr by immunoblotting method; type: cell-based, A-431
[12] = biological target: T2, Epidermal growth factor receptor; experiment: Inhibition of EGF-induced EGFR autophosphorylation in human A431 cells after 1 hr by immunoblotting method; type: cell-based, A-431
[13] = biological target: T2, Epidermal growth factor receptor; experiment: Reversible inhibition of EGF-induced EGFR autophosphorylation in human A431 cells assessed as residual activity compound preincubated at 1 uM for 1 hr measured after 8 hrs post compound washout by immunoblotting method; type: cell-based; settings: A-431
[14] = biological target: T1, Epidermal growth factor receptor; experiment: Inhibition of EGF-induced EGFR L858R/T790M mutant-mediated ERK phosphorylation in human […] cells after 1 hr by immunoblotting method; type: cell-based
[15] = Growth inhibition of human HCC827 cells harboring EGFR E746 to E750 deletion mutant assessed as reduction in cell viability after 72 hrs by CellTiter Glo assay; type: functional; settings: HCC827, 72 h
[16] = Inhibition of EGF-induced EGFR E746 to E750 deletion mutant autophosphorylation in human HCC827 cells after 1 hr by immunoblotting method; type: cell-based; settings: HCC827, 1 h
[17] = biological target: T1, Epidermal growth factor receptor; experiment: Inhibition of EGFR L858R/T790M mutant (unknown origin) using Y12-Sox peptide as substrate preincubated for 30 mins by fluorescence assay; type: protein assay
[18] = biological target: T2, Epidermal growth factor receptor; experiment: Irreversible inhibition of EGF-induced EGFR autophosphorylation in human A431 cells assessed as residual activity compound preincubated at 1 uM for 1 to 8 hrs measured after 1 hr post compound washout by immunoblotting method; type: cell-based; settings: A-431
Homo sapiens = species: Homo sapiens; experiment: Covalent binding affinity to EGFR C773S mutant (unknown origin) after 1 hr by mass spectrometry
[19] = biological target: T2, Epidermal growth factor receptor; experiment: Inhibition of EGF-induced EGFR autophosphorylation in human A431 cells at 1 uM after 2 mins by immunoblotting method; type: cell-based; settings: A-431
[20] = biological target: T2, Epidermal growth factor receptor; experiment: Inhibition of EGF-induced EGFR autophosphorylation in human A431 cells at 1 uM after 30 mins by immunoblotting method; type: cell-based; settings: A-431
[21] = biological target: T2, Epidermal growth factor receptor; experiment: Inhibition of EGF-induced EGFR autophosphorylation in human A431 cells at 1 uM after 10 mins by immunoblotting method; type: cell-based; settings: A-431

| SMILES | EC50 [1] | EC50 [2] | IC50 [4] | EC50 [5] | Activity [6] | EC50 [7] | IC50 [8] | GI50 (A-431) | GI50 (NCI-H1975) | IC50 [9] | EC50 [10] | IC50 [11] | IC50 [12] | EC50 [14] | GI50 [15] | EC50 [16] | IC50 [17] | further results |
| --- | --- | --- | --- | --- | --- | --- | --- | --- | --- | --- | --- | --- | --- | --- | --- | --- | --- | --- |
| CCC(=O)Nc1cccc(Nc2cc(Nc3cccc(Br)c3)ncn2)c1 | < 0.02 µM | > 5 µM | 1.16 µM | > 4.58 µM | inactive | < 0.02 µM | < 0.001 µM | 0.018 µM | 0.089 µM | 0.136 µM | > 5 µM | 0.243 µM | 0.166 µM | > 5 µM | 0.015 µM | 0.027 µM | > 5 µM | Activity [3]: 20%; Activity [13]: 60% |
| C=CC(=O)Nc1cccc(Nc2cc(Nc3cccc(Br)c3)ncn2)c1 | < 0.02 µM | 0.441 µM | 0.509 µM | 0.166 µM | > 80% | < 0.02 µM | < 0.001 µM | 0.018 µM | 0.134 µM | 0.104 µM | 0.427 µM | 0.511 µM | 0.049 µM | 0.172 µM | < 0.005 µM | < 0.02 µM | 0.0054 µM | inhibition [18]: Active; Activity (Homo sapiens): inactive; inhibition [19]: 50%; inhibition [20]: Active; inhibition [21]: 90% |
